Measured values taken from patent US8951977B2, “Amorphous roxithromycin composition” (North-West University, priority 2011, dated 2015).
≈ marks a conversion by molar mass, not a printed value.

How the values were obtained:
[1] = Solubility of roxithromycin forms in buffer media and water, excess solid, 37 degrees Celsius, 24 h, HPLC assay; assay type: physicochemical; conditions: for solubility at 24 h: 37 °C, thermodynamic from solid, 37 degrees Celsius
Procedure: In further analysis of the novel Form-III, each of five replicate test tubes were filled with an excess of the amorphous form (Form-III) of roxithromycin and 10 ml of solubility medium. The process was performed with each of the following mediums: acetate buffer (pH 4.5), phosphate buffer (pH 6.8), distilled water and 0.1 M HCl. The phosphate buffer comprises potassium dihydrogen phosphate, disodium hydrogen phosphate and water. The acetate buffer comprises ammonium acetate, glacial acetic acid and water. This method was also used for testing the prior art anhydrous roxithromycin.
The test tubes were fixed to a rotating axis (54 rpm) and submerged in a water bath at 37 degrees Celsius±2 degrees Celsius for twenty-four hours. The contents of the test tubes were filtered through a 0.45 μm filter and subsequently the respective filtrates were diluted.
The concentrations of the four filtrates of amorphous form (Form-III) of roxithromycin and roxithromycin raw material were respectively determined by HPLC (high performance liquid chromatography) assay. The HPLC assay was performed utilising a mobile phase of 30 g/L ammonium dihydrogen phosphate buffer at pH 5.3. The pH was adjusted with sodium hydroxide solution. The mobile phase comprised of buffer (600) and acetonitrile (400). A Luna C18 150 mm×4.6 mm column was used with a flow rate of 1.0 ml/min and a wavelength of 205 nm. Validation of this method provided a linear regression, R^2, of 0.9998.

[2] = Stability trial at increased temperature and 75% relative humidity for 4 weeks (TGA, XRPD, IR); assay type: physicochemical
Procedure: During further stability analysis, samples of both the raw material and amorphous form (Form-III) of roxithromycin were kept at 25 degrees Celsius and 75% relative humidity (RH) (FIG. 7); 30 degrees Celsius and 75% relative humidity (FIG. 8); and 40 degrees Celsius and 75% relative humidity, for a period of 4 weeks. The samples were analysed by thermogravimetric analysis (TGA) and percentage weight loss/gain was determined.
It is evident from FIGS. 7 and 8 that after week 4 of a stability trial an amount of approximately 2.5% moisture is absorbed by the samples. The TGA results obtained for the samples stored at 40° C./75% RH (FIG. 9) did however not show the same extent of moisture absorption as that obtained with the samples of FIGS. 7 and 8. […] No moisture-induced recrystallisations of the amorphous form were observed. […] The amorphous form (Form-III) could therefore be regarded as stable against increased temperatures and humidity.
The IR data illustrates that the absorbed moisture was not structurally absorbed within the molecule, but only absorbed on the surface of the structure. This is confirmed by the peak between wavenumbers 3580 to 3464 cm^−1 that represents the —OH bands of roxithromycin raw material and the lack of peaks in the amorphous form (Form-III) of roxithromycin. […]

solubility at 24 h ([1]; aqueous buffer, acetate buffer (pH 4.5)) [µg/mL] | solubility at 24 h ([1]; aqueous buffer, phosphate buffer (pH 6.8)) [µg/mL] | solubility at 24 h ([1]; distilled water) [µg/mL] | recrystallisation (XRPD) ([2]; storage four weeks at 40 degrees Celsius and 75% relative humidity) | stability in 0.1 M HCl ([1]; 0.1 M HCl solubility medium, results omitted for both forms) | Compound | solid-state stability of the amorphous form ([2]; 25, 30 and 40 degrees Celsius, 75% RH, 4 weeks)
1150 ± 6.5 (≈ 1370 µM) | 208 ± 3.7 (≈ 249 µM) | 8.6 ± 1.8 (≈ 10.3 µM) | no recrystallisation |  | CC[C@H]1OC(=O)[C@H](C)[C@@H](O[C@H]2C[C@@](C)(OC)[C@@H](O)[C@H](C)O2)[C@H](C)[C@@H](O[C@@H]2O[C@H](C)C[C@H](N(C)C)[C@H]2O)[C@](C)(O)C[C@@H](C)/C(=N\OCOCCOC)[C@H](C)[C@@H](O)[C@]1(C)O [Form-III, roxithromycin] | stable over a period of 4 weeks and did not recrystallise to a crystalline form
 |  |  |  | rapid degradation | CC[C@H]1OC(=O)[C@H](C)[C@@H](O[C@H]2C[C@@](C)(OC)[C@@H](O)[C@H](C)O2)[C@H](C)[C@@H](O[C@@H]2O[C@H](C)C[C@H](N(C)C)[C@H]2O)[C@](C)(O)C[C@@H](C)/C(=N\OCOCCOC)[C@H](C)[C@@H](O)[C@]1(C)O [roxithromycin, 3R, 4S, 5S, 6R, 7R, 9R, 11S, 12R, 13S, 14R-6-[(2S,3R,4S,6R)-4-dimethylamino-3-hydroxy-6-methyloxan-2-yl]oxy-14-ethyl-7,12,13-trihydroxy-4-[(2R,4R,5S,6S)-5-hydroxy-4-methoxy-4,6-dimethyloxan-2-yl]oxy-10-(2-methoxyethoxymethoxyimino)-3,5,7,9,11,13-hexamethyl-1-oxacyclotetradecan-2-one] | 
